Results taken from article PMC10046377, “Inhibitors of the Oncogenic PA2G4-MYCN Protein-Protein Interface” (Cancers, 2023).

How the values were obtained:
SK-N-BE(2)-C cells = experiment: Label-free quantitative LC/MS proteomics of treated SK-N-BE(2)-C cells; assay type: cell-based, human; conditions: 72 h, versus DMSO, LFQ LC/MS
Protocol: SK-N-BE(2)-C cells were incubated with #5333 or #5338 at IC50 concentration of the compound for 72 h. Cells were harvested and the pellets were lysed with RIPA buffer containing protease inhibitors (Sigma-Aldrich, St. Louis, MO, USA). Cell lysates were sent for LFQ/LC/MS analysis at the Bioanalytical Mass Spectrometry Facility, UNSW Sydney. […] Differential protein expression analysis was performed using the DEP (v1.14.0) package in R(v4.1.1). Variance stabilising transformation (vsn) method was used to normalise the protein expression data. Threshold of p-value < 0.05 and log2 fold-change value > |0.6| was used as a cut off to identify differentially expressed proteins. Functional enrichment analysis was performed using DAVID (v 6.8).
To further understand the mechanism of action and off target effects of the WS6 analogues, we used label-free quantitative mass spectrometry of differential proteome expression in response to drug treatment. […] A total of 4255 unique proteins were captured across the three proteomes, of which 258 proteins were differentially expressed after treatment with #5333, and 1371 proteins treated with #5338, when compared to DMSO-treated cells (Figure 4A,B and Supplementary Figure S4A).

[1] = test system: cleaved PARP and cleaved Caspase 3; experiment: Western blot of apoptotic markers; assay type: cell-based, human; conditions: compared to WS6 treatment at IC50 concentration; no changes in Bcl-2 or Bax
Protocol: Protein was extracted from cell pellets using RIPA buffer (Sigma) with 10% protease inhibitor (Sigma, Sydney, Australia). Quantification of proteins was conducted using Pierce BCA protein assay kit (Thermo Scientific), according to manufacturer’s instructions. A total of 30–50 μg protein samples were loaded onto Criterion TGX 10% precast gel (Bio-Rad) or NuPAGE™ 4–12% Mini Protein Gel (Invitrogen, Life technologies) and transferred to a nitrocellulose membrane (Bio-Rad). […] Quantification of protein expression was measured by Image Lab software (Bio-Rad) and normalised to loading control.
To determine if the drug effects led to apoptosis, we stained cells with annexin-V/7-AAD, a marker of early and late apoptotic events (Figure 2D). […] To confirm the apoptotic status of the cells, protein expression of key apoptotic markers PARP/Cleaved PARP, Caspase 3/Cleaved caspase 3, BCL2, and Bax was measured (Figure 2E).

PA2G4 protein = target: T1, PA2G4 protein (Homo sapiens, UniProt Q9UQ80); experiment: Differential scanning fluorimetry of PA2G4; assay type: binding; design: made in house; host or cells: BL21 (DE3) E. coli; conditions: relative to DMSO control
T1 sequence (Q9UQ80 1-394): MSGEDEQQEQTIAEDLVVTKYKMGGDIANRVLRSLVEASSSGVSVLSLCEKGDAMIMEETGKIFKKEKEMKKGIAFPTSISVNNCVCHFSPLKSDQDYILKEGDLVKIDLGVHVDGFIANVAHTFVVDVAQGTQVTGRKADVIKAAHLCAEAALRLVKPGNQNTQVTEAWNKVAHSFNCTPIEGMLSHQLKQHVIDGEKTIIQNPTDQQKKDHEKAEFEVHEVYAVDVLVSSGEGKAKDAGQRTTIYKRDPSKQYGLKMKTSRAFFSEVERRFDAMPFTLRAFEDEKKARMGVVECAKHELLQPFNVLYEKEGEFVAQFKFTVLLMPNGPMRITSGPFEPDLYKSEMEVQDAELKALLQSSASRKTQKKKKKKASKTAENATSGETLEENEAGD
Excerpt: Seeking a further reduction of toxicity and improvements in physicochemical properties, we conducted a second in silico analogue screen using the structure of #3567. A further 33 compounds were purchased and assayed (Supplementary Figure S1C).

SMILES	GATA2 protein fold change (SK-N-BE(2)-C cells)	expression of cleaved PARP and cleaved Caspase 3 [1]	melting temperature of PA2G4 (DSF) (PA2G4 protein)
Cc1cccc(Oc2cc(N3CCC(C(=O)NCc4cccc(Br)c4)CC3)ncn2)c1C [#5333]	−4.2	increased	increased the melting temperature
Cc1cccc(Oc2cc(N3CCC(C(=O)N[C@@H](C)CCc4ccccc4)CC3)ncn2)c1C [#5338]	−5.5	increased	increased the melting temperature
